Data as given in ChEMBL document CHEMBL4138090, “4-Phenyl quinoline derivatives as potential serotonin receptor ligands with antiproliferative activity” (Eur J Med Chem, 2017).
The source made the active and inactive calls. The rule behind the calls is not given here.

Columns and labels:
[1] = molecular target: 5-hydroxytryptamine receptor 2A (Homo sapiens) (UniProt P28223); assay: Antagonist activity at 5-HT2A receptor in human MCF7 cells assessed as inhibition of serotonin-induced calcium flux at 5 uM measured at 5 secs time interval for 2 mins by Fluo-4AM dye based fluorescence microscopic analysis; format: functional, cell-based
5-hydroxytryptamine receptor 2A (Homo sapiens), sequence (P28223 whole entry): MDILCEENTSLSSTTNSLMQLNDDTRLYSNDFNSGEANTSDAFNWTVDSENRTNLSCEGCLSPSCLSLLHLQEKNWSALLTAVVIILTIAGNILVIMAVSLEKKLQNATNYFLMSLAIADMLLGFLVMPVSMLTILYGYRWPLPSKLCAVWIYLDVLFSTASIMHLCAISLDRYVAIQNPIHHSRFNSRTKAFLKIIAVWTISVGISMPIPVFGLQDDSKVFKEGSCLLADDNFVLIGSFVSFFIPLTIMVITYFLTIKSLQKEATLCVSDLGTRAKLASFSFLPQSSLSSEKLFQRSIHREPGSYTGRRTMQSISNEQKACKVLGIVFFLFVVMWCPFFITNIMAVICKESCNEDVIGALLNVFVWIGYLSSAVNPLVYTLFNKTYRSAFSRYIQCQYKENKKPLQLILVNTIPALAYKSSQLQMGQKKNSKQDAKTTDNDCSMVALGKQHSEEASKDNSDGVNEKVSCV

MCF7 [2] = assay: Cell cycle arrest in human MCF7 cells assessed as accumulation at G1/S phase after 48 hrs by propidium iodide staining based flow cytometry; format: functional
MCF7 [3] = assay: Induction of morphological changes in human MCF7 cells assessed as cell detachment at 5 uM after 72 hrs; format: functional, cell-based
MCF7 [4] = assay: Antiproliferative activity against human MCF7 cells after 72 hrs by MTT assay; format: functional, cell-based; settings: MCF7, 72 h
MCF7 [5] = assay: Induction of apoptosis in human MCF7 cells at 5 uM after 48 hrs by Annexin V-FITC/propidium iodide staining based flow cytometry; format: functional, cell-based
MCF7 [6] = assay: Antiproliferative activity against human MCF7 cells at 5 uM after 72 hrs by MTT assay; format: functional, cell-based
MCF7 [7] = assay: Induction of apoptosis in human MCF7 cells assessed as early apoptotic cells at 5 uM after 48 hrs by Annexin V-FITC/propidium iodide staining based flow cytometry; format: functional, cell-based
MCF7 [8] = assay: Cell cycle arrest in human MCF7 cells assessed as accumulation at G2/M phase after 48 hrs by propidium iodide staining based flow cytometry; format: functional
MCF7 [9] = assay: Induction of morphological changes in human MCF7 cells assessed as loss in cellular integrity at 5 uM after 72 hrs; format: functional, cell-based
[10] = molecular target: 5-hydroxytryptamine receptor 2A (Homo sapiens) (UniProt P28223); assay: Antagonist activity at 5-HT2A receptor in human MCF7 cells assessed as reduction in ERK1/2 phosphorylation at 5 uM after 24 to 48 hrs by Western blot analysis relative to control; format: functional, cell-based
[11] = Cytotoxicity against HEK293 cells assessed as reduction in cell viability after 72 hrs by MTT assay; format: cell-based; settings: human, read-out: LD50
MCF7 [12] = assay: Cell cycle arrest in human MCF7 cells assessed as accumulation at sub-G0/G1 phase after 48 hrs by propidium iodide staining based flow cytometry; format: functional
MCF7 [13] = assay: Antiproliferative activity against human MCF7 cells at 5 uM after 72 hrs in presence of serotonin by MTT assay; format: functional, cell-based

| SMILES | inhibition [1] | Activity (MCF7 [2]) | Activity (MCF7 [3]) | IC50 (MCF7 [4]) [µM] | Activity (MCF7 [5]) | Activity (MCF7 [6]) | Activity (MCF7 [7]) | Activity (MCF7 [8]) | Activity (MCF7 [9]) | inhibition [10] [%] | CC50 at 72 h [11] [µM] | Activity (MCF7 [12]) | Activity (MCF7 [13]) |
| --- | --- | --- | --- | --- | --- | --- | --- | --- | --- | --- | --- | --- | --- |
| Cc1c(N2CCN(C)CC2)nc2ccccc2c1-c1ccccc1 | Active | – | – | – | – | – | – | – | – | – | – | – | – |
| CCN1CCN(c2nc3ccccc3c(-c3ccccc3)c2C)CC1 | Active | inactive | Active | 6.15 | Active | Active | Active | inactive | Active | > 50 | > 24 | Active | inactive |
| CCN1CCN(c2nc3ccccc3c(-c3ccccc3)c2-c2ccccc2)CC1 | Active | – | – | 7.48 | – | Active | – | – | – | – | > 24 | – | inactive |
